Reference: patent US20080318255A1, “Fluorescent Labeled Sphingosines” (priority 2003, published 2008)

What was measured:
human SPHK-1 = target: T1, human SPHK-1 (Homo sapiens, UniProt Q9NYA1); test: Phosphorylation of fluorescent labeled sphingosines by SPHK-1 ([γ-32P]ATP, TLC); assay type: biochemical; conditions: for rate of phosphorylation (phosphate conversion rate) relative to sphingosine (=1), SPHK-1: 20 μM substrate, cytoplasmic fraction of HEK-293 cells overexpressing human SPHK-1; for times (fold) less efficiently converted to the phosphate than SP, SPHK-1: compared to sphingosine (SP); for reduction of phosphorylation efficiency (factor), SPHK-1: compared to compound of example 4
T1 construct: expressed in transfected cells; host or cells: HEK-293 (cytoplasmic fraction)
Protocol: (§1) The phosphorylation reactions are performed essentially as follows. The cytoplasmic fraction of recombinant HEK-293 cells overexpressing human SPHK-1 or -2 is incubated at 30° in total volumes of 100 μl with SP derivatives (20 μM; added from stock solutions in DMSO), 1 mM of ATP, and 2 μCi [γ-^32P]ATP in 50 mM Hepes buffer (pH 7.4) containing 15 mM MgCl2, 0.005% Triton X-100, 10 mM KCl , 10 mM NaF and 1.5 mM semicarbazide. Following incubations for different time points up to 2 hours, lipids are extracted and separated by TLC-plates (Merck). TLC is performed on silica plates, using either BuOH/acetic acid/H2O 3:1:1 or CHCl3/MeOH/H2O/NH4OH (28^w/w%) 200:150:29:1 as the mobile phase. In these systems sphingosine and the compound of Example 4 co-migrate. Identity of the metabolites with pyrene-labeled SPP and sphingomyelin (SM) is established by co-migration with commercially available tritium-labeled SPP and SM as standards.
(§2) Radiolabeled SPP derivatives are visualized and quantified using a Molecular Dynamics Storm Phosphorlmager (Sunnyvale, Calif.). The rate of phosphorylation is calculated and is reported for the fluorescent labeled sphingosines as value relative to the rate for sphingosine (for which the rate is 41 and 25 nmol/min/mg with SPHK-1 and -2, respectively).
(§3) The fluorescently labeled sphingosines of examples 1-7 are used as substrates for human recombinant SPHK-1 and SPHK-2 and all of them are converted to phosphorylated derivatives as visualized by the incorporation of radiolabeled phosphate upon incubation with [γ-32P]ATP and the kinases. The rates of phosphorylation (phosphate conversion rate) are determined and summarized in Table A relative to the natural substrate sphingosine (=SP), which has the assumed value of 1.

human SPHK-2 = target: T2, human SPHK-2 (Homo sapiens, UniProt Q9NRA0); test: Phosphorylation of fluorescent labeled sphingosines by SPHK-2 ([γ-32P]ATP, TLC); assay type: biochemical; conditions: for rate of phosphorylation (phosphate conversion rate) relative to sphingosine (=1), SPHK-2: 20 μM substrate, cytoplasmic fraction of HEK-293 cells overexpressing human SPHK-2
T2 construct: expressed in transfected cells; host or cells: HEK-293 (cytoplasmic fraction)
T2 sequence (Q9NRA0 1-654): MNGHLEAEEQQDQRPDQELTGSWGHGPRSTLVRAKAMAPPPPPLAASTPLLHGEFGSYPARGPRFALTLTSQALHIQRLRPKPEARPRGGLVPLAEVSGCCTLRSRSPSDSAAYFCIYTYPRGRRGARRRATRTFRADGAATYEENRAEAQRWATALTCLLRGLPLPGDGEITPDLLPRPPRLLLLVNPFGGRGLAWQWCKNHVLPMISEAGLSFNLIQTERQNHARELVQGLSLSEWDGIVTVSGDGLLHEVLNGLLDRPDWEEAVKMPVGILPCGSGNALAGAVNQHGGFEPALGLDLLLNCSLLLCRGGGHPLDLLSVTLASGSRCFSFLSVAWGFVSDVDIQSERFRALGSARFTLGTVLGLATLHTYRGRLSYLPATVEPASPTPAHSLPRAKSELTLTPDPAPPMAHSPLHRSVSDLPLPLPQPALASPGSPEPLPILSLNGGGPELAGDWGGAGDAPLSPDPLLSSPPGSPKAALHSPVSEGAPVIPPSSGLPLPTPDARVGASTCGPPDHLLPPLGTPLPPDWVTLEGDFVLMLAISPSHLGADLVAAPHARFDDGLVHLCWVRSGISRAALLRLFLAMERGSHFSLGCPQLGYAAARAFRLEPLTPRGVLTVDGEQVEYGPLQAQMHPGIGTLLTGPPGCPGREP
Protocol: as §1, §2, §3

[1] = system: human endothelial cells (HUVEC); test: Uptake, subcellular distribution and metabolism of fluorescent labeled sphingosines in human endothelial cells; assay type: cell-based
Source text: To examine the uptake, subcellular distribution and metabolism (conversion to the phosphate) in human endothelial cells (HUVEC), the pyrene labeled sphingosine of example 4 is used. […] Furthermore, the compound is converted intracellularly into 4 products as shown by thin-layer chromatography.

sphingosine kinase = test: Fluorimetric assay of sphingosine kinase activity; assay type: biochemical
Source text: We have determined that sphingosine kinase in the presence of ATP phosphorylates a compound COMPA (compound of Example 23), which is a fluorescent labeled sphingosine, to obtain a corresponding phosphorylated compound COMPA-P (compound of Example 24) according to the Reaction SCHEME 4 as set out below.
wherein residues are as defined above and R3 is H. such as phosphorylation of a compound of Example […] by a sphingosine kinase to obtain a compound of Example […] in the presence of ATP. COMPA and COMPB are separated by liquid-liquid extraction. Fluorescence as a measure of enzyme activity of a compound of formula COMPA-P in the aqueous phase is quantified. In detail:
Sphingosine kinase is incubated in total volumes of 100 μl with a compound of formula COMPA (20 μM, added from stock solutions in DMSO) and ATP (1 mM) in 50 mM Hepes buffer, pH 7.4, containing 15 mM MgCl2, 0.005% Triton X-100, 10 mM KCl for 30 minutes at 30° and to the mixture obtained 100 μl 1 M potassium phosphate buffer, pH 8.5, followed by 250 μl CHCl3/MeOH 2:1 are added. […]
Fluorescence intensity is measured in a plate reader with excitation at 485 nm and emission at 538 nm. […] From the fluorescence intensity, concentrations of a compound of formula COMPA-P are calculated using appropriate calibration curves in the same solvent system. […]

[2] = system: HUVEC overexpressing SPHK-1 or SPHK-2; test: Sphingolipid turnover of labeled sphingosines in HUVEC transiently transfected with SPHK-1 and SPHK-2; assay type: cell-based, human; conditions: FIG. 3, transfected cells, TLC
Protocol: HUVEC as described in Test Example 4 are seeded in 6-well plates at 50% confluency and grown overnight. Grown cells obtained are transfected using Lipofectamine Plus reagent with an empty vector (GFP-vector from Clontech) alone and GFP-tagged expression constructs coding for SPHK-1 and SPHK-2. Transfection is carried out for 20 hours. To the transfected cells obtained a labeled compound of formula I wherein X is (HO)2PO is added at 2 μM and incubated for 0.5 hours, 1 hour and 3 hours, respectively. Lipids are extracted and the extraction residue obtained is subjected to TLC using BuOH/AcOH/H2O 3:1:1 as a solvent system. TLC plates obtained are scanned using CCD camera and density of the lipid products obtained is measured using AlphaImage 2200 (see FIG. 3).

T1 sequence (Q9NYA1 whole entry): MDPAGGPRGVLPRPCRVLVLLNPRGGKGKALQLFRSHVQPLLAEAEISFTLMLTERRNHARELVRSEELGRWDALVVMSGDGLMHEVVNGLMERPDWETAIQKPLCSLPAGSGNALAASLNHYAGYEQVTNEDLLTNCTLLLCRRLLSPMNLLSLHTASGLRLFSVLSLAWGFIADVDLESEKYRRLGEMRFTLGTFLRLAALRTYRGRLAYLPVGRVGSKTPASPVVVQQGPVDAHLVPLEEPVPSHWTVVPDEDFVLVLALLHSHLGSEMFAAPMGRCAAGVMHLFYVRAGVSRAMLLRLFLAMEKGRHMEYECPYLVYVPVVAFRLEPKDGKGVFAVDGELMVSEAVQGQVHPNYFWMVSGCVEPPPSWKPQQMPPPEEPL

## N[C@@H](CO)[C@H](O)/C=C/CCCOC(=O)CCCc1cc2ccc3cccc4ccc(c1)c2c34 [Example 1]
Human SPHK-1; 1 mM ATP, 30°
  rate of phosphorylation (phosphate conversion rate) relative to sphingosine (=1), SPHK-1: 0.048
Human SPHK-1
  times (fold) less efficiently converted to the phosphate than SP, SPHK-1: about 20
Human SPHK-2; 1 mM ATP, 30°
  rate of phosphorylation (phosphate conversion rate) relative to sphingosine (=1), SPHK-2: 0.14

## N[C@@H](CO)[C@H](O)/C=C/CCCOC(=O)CCCCCc1cc2ccc3cccc4ccc(c1)c2c34 [Example 2]
Human SPHK-1; 1 mM ATP, 30°
  rate of phosphorylation (phosphate conversion rate) relative to sphingosine (=1), SPHK-1: 0.078
Human SPHK-1; compared to example 1
  improvement of phosphorylation rate by a factor, SPHK-1: 2
Human SPHK-2; 1 mM ATP, 30°
  rate of phosphorylation (phosphate conversion rate) relative to sphingosine (=1), SPHK-2: 0.83

## N[C@@H](CO)[C@H](O)/C=C/CCCOC(=O)CCCCCCCCCc1cc2ccc3cccc4ccc(c1)c2c34 [Example 3]
Human SPHK-1; 1 mM ATP, 30°
  rate of phosphorylation (phosphate conversion rate) relative to sphingosine (=1), SPHK-1: 0.024
Human SPHK-1
  times (fold) less efficiently converted to the phosphate than SP, SPHK-1: about 40
Human SPHK-2; 1 mM ATP, 30°
  rate of phosphorylation (phosphate conversion rate) relative to sphingosine (=1), SPHK-2: 0.065

## N[C@@H](CO)[C@H](O)/C=C/CCCCCCCCCCOC(=O)c1cc2ccc3cccc4ccc(c1)c2c34 [Example 4]
Human SPHK-1
  phosphorylation by SPHK-1 (in words): almost equal phosphorylation by SPHK-1 relative to natural SP
Human SPHK-1; 1 mM ATP, 30°
  rate of phosphorylation (phosphate conversion rate) relative to sphingosine (=1), SPHK-1: 0.83
Human SPHK-1; short term in vitro phosphorylation experiments
  degradation of the ester functionality: no degradation is observed
Human SPHK-2; 1 mM ATP, 30°
  rate of phosphorylation (phosphate conversion rate) relative to sphingosine (=1), SPHK-2: 1.25
[1]
  time to incorporation into the cells after addition: ≤ 5 min
[1]; after 15-30 minutes of incubation
  subcellular distribution: predominantly distribution to the endoplasmic reticulum and to the Golgi apparatus
[1]; thin-layer chromatography
  major metabolite: co-migrates with sphingosine-1-phosphate (SPP)
  number of products formed intracellularly: 4

## N[C@@H](CO)[C@H](O)/C=C/CCCCCCCCCCNC(=O)c1cc2ccc3cccc4ccc(c1)c2c34 [Example 5]
Human SPHK-1; 1 mM ATP, 30°
  rate of phosphorylation (phosphate conversion rate) relative to sphingosine (=1), SPHK-1: 0.28
Human SPHK-1
  reduction of phosphorylation efficiency (factor), SPHK-1: 2
Human SPHK-2; 1 mM ATP, 30°
  rate of phosphorylation (phosphate conversion rate) relative to sphingosine (=1), SPHK-2: 0.59
Human SPHK-2; compared to compound of example 4
  reduction of phosphorylation efficiency (factor), SPHK-2: 3

## N[C@@H](CO)[C@H](O)/C=C/CCCCCCCCCCNS(=O)(=O)c1cc2ccc3cccc4ccc(c1)c2c34 [Example 6]
Human SPHK-1; 1 mM ATP, 30°
  rate of phosphorylation (phosphate conversion rate) relative to sphingosine (=1), SPHK-1: 0.051
Human SPHK-1
  reduction of phosphorylation efficiency (factor), SPHK-1: about 20
Human SPHK-2
  phosphorylation by SPHK-2 (in words): almost as efficiently as SP
Human SPHK-2; 1 mM ATP, 30°
  rate of phosphorylation (phosphate conversion rate) relative to sphingosine (=1), SPHK-2: 0.83

## CN(C)c1cccc2c(S(=O)(=O)NCCCCCCCCCC/C=C/[C@@H](O)[C@@H](N)CO)cccc12 [Example 7]
Human SPHK-1; 1 mM ATP, 30°
  rate of phosphorylation (phosphate conversion rate) relative to sphingosine (=1), SPHK-1: 0.063
Human SPHK-2; 1 mM ATP, 30°
  rate of phosphorylation (phosphate conversion rate) relative to sphingosine (=1), SPHK-2: 0.026

## N[C@H](COCCCCCCCCCCCNc1ccc([N+](=O)[O-])c2nonc12)COP(=O)(O)O [Example 23, Phosphoric acid mono-{(R)-2-amino-3-[11-(7-nitro-benzo[1,2,5]oxadiazol-4-ylamino)-undecyloxy]-propyl}ester]
Sphingosine kinase
  phosphorylation by sphingosine kinase in the presence of ATP: phosphorylates

## N[C@@H](CO)[C@H](O)/C=C/CCCCCCCCCCNc1ccc([N+](=O)[O-])c2nonc12 [Example 24]
[2]
  phosphorylation in cells overexpressing SPHK-1 versus SPHK-2: phosphorylated more efficient by SPHK-2 than by SPHK-1

## CCCCCCCCCCCCC/C=C/[C@@H](O)[C@@H](N)CO [sphingosine]
Human SPHK-1; 20 μM, 1 mM ATP, 30°
  rate of phosphorylation with SPHK-1: 41 nmol/min/mg
Human SPHK-2; 20 μM, 1 mM ATP, 30°
  rate of phosphorylation with SPHK-2: 25 nmol/min/mg
